Measurements reported in US20170035664A1, “FLAVOR-OPTIMIZED IONIZED WATER COMPOSITIONS” (priority 2015, published 2017).
Where two headings read alike, the source gives them in different places.

Key:
[1] = cited from earlier work
[2] = Solubility of components in the exemplary compositions; format: physicochemical; conditions: in the current exemplary compositions
Method: Additional experiments provided a greater understanding of the ability to achieve certain functional goals for the final composition. Evaluation of phosphorus, calcium, vitamin D, fluoride, xylitol, and the pH of the alkaline ionized water was performed as described below.

[3] = Evaluation of calcium: bioavailability; conditions: form of calcium

| Compound | dosage causing diarrhea ([1]; adults) | dosage causing diarrhea ([1]; children) | tolerated amount ([1]; most adults) | solubility [2] | bioavailability [3] |
| --- | --- | --- | --- | --- | --- |
| OC[C@@H](O)[C@H](O)[C@@H](O)CO [xylitol] | 100 g/day | 45 g/day | 40 g/day |  |  |
| vitamin D |  |  |  | not soluble |  |
| CC(O)C(=O)[O-].O=C([O-])[C@H](O)[C@@H](O)[C@H](O)[C@H](O)CO.[Ca+2] [Calcium lactate gluconate] |  |  |  | very soluble | bioavailable |
